Where “and” joins values, the source holds several entries; their conditions need not be identical. Equal entries are not always repeated. Inconclusive results and toxic doses are left out. Cut-off read from the data, not from the text of the source: active = T/C of 150% or more; inactive = T/C below 125%.
Tested on: L1210 leukemia ip in BDF1 mice, survival T/C
Experiment: NCI In Vivo Anticancer Drug Screen. Data for tumor model L1210 Leukemia (intraperitoneal) in B6D2F1 (BDF1) mice
Conditions: endpoint: mean survival time, higher = longer survival
In short: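 Ratio derived from survival: compound-dosed mice over vehicle-dosed mice, all bearing a transplantable tumor.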

[1] = dose: 100.0 mg/kg/injection, schedule: Q04DX002 (ip), vehicle: saline
[2] = dose: 100.0 mg/kg/injection, schedule: Q04DX003 (ip), vehicle: saline
[3] = dose: 200.0 mg/kg/injection, schedule: Q04DX003 (ip), vehicle: saline
[4] = dose: 400.0 mg/kg/injection, schedule: Q04DX003 (ip), vehicle: saline
[5] = dose: 25.0 mg/kg/injection, schedule: Q04DX003 (ip), vehicle: saline
[6] = dose: 50.0 mg/kg/injection, schedule: Q04DX003 (ip), vehicle: saline
[7] = dose: 50.0 mg/kg/injection, schedule: Q01DX009 (ip), vehicle: Klucel (hydroxypropylcellulose) (HPC)
[8] = dose: 50.0 mg/kg/injection, schedule: Q04DX003 (ip), vehicle: Klucel (hydroxypropylcellulose) (HPC)
[9] = dose: 100.0 mg/kg/injection, schedule: Q01DX009 (ip), vehicle: Klucel (hydroxypropylcellulose) (HPC)
[10] = dose: 100.0 mg/kg/injection, schedule: Q04DX003 (ip), vehicle: Klucel (hydroxypropylcellulose) (HPC)
[11] = dose: 200.0 mg/kg/injection, schedule: Q01DX009 (ip), vehicle: Klucel (hydroxypropylcellulose) (HPC)
[12] = dose: 200.0 mg/kg/injection, schedule: Q04DX003 (ip), vehicle: Klucel (hydroxypropylcellulose) (HPC)
[13] = dose: 400.0 mg/kg/injection, schedule: Q04DX003 (ip), vehicle: Klucel (hydroxypropylcellulose) (HPC)
[14] = dose: 100.0 mg/kg/injection, schedule: Q04DX003 (ip), vehicle: saline with Tween-80
[15] = dose: 200.0 mg/kg/injection, schedule: Q04DX003 (ip), vehicle: saline with Tween-80
[16] = dose: 400.0 mg/kg/injection, schedule: Q04DX003 (ip), vehicle: saline with Tween-80
[17] = dose: 100.0 mg/kg/injection, schedule: Q01DX001 (ip), vehicle: saline
[18] = dose: 200.0 mg/kg/injection, schedule: Q01DX001 (ip), vehicle: saline
[19] = dose: 400.0 mg/kg/injection, schedule: Q01DX001 (ip), vehicle: saline
[20] = dose: 100.0 mg/kg/injection, schedule: Q01DX009 (ip), vehicle: saline with Tween-80
[21] = dose: 200.0 mg/kg/injection, schedule: Q01DX009 (ip), vehicle: saline with Tween-80
[22] = dose: 400.0 mg/kg/injection, schedule: Q01DX009 (ip), vehicle: saline with Tween-80
[23] = dose: 100.0 mg/kg/injection, schedule: Q01DX009 (ip), vehicle: saline sonified
[24] = dose: 200.0 mg/kg/injection, schedule: Q01DX009 (ip), vehicle: saline sonified
[25] = dose: 100.0 mg/kg/injection, schedule: Q01DX001 (ip), vehicle: other
[26] = dose: 200.0 mg/kg/injection, schedule: Q01DX001 (ip), vehicle: other
[27] = dose: 400.0 mg/kg/injection, schedule: Q01DX001 (ip), vehicle: other

Measured: T/C

c1cc2c(c(OCC3=NCCN3)c1)CCCC2
inactive: [1] 94 % of control

Cc1ccc(-c2nc3ncnc(N)c3[nH]2)cc1N
inactive: [2] 89 % of control | [3] 94 % of control | [4] 94 % of control

CCCNCCCN
inactive: dose: 25.0 mg/kg/injection, schedule: Q01DX009 (ip), vehicle: saline 100 % of control | [5] 93 % of control | dose: 50.0 mg/kg/injection, schedule: Q01DX009 (ip), vehicle: saline 105 % of control | [6] 101 % of control | [2] 94 % of control and 102 % of control | [3] 88 % of control

COc1ccc(CCN2CC(=O)NC(=O)C2)cc1OC
inactive: dose: 25.0 mg/kg/injection, schedule: Q01DX009 (ip), vehicle: Klucel (hydroxypropylcellulose) (HPC) 95 % of control | dose: 25.0 mg/kg/injection, schedule: Q04DX003 (ip), vehicle: Klucel (hydroxypropylcellulose) (HPC) 104 % of control | [7] 96 % of control | [8] 104 % of control | [9] 101 % of control | [10] 101 % of control | [11] 101 % of control | [12] 101 % of control | dose: 400.0 mg/kg/injection, schedule: Q01DX009 (ip), vehicle: Klucel (hydroxypropylcellulose) (HPC) 101 % of control | [13] 109 % of control

CCOC(=O)C(N)Cc1cc(I)c(O)c(I)c1 (stereo unspecified)
inactive: [14] 95 % of control | [15] 97 % of control | [16] 101 % of control

c1ccc(C(c2ccccc2)[Si](c2ccccc2)(c2ccccc2)c2ccccc2)cc1
inactive: dose: 100.0 mg/kg/injection, schedule: Q04DX002 (ip), vehicle: saline with Tween-80 90 % of control | dose: 200.0 mg/kg/injection, schedule: Q04DX002 (ip), vehicle: saline with Tween-80 97 % of control

CC(=O)OCC1OC(SC2CCCCC2Br)C(OC(C)=O)C(OC(C)=O)C1OC(C)=O (stereo unspecified)
inactive: [17] 101 % of control | [18] 104 % of control | [19] 106 % of control

Cc1ccc(C2(C)CC/C(=N/N=C3/CCC(C)(c4ccc(C)c(C)c4)c4cc(C)c(C)cc43)c3cc(C)c(C)cc32)cc1C (stereo unspecified)
inactive: [17] 93 % of control | [18] 101 % of control | [19] 98 % of control

C1=C(c2ccccc2)N(CCc2ccccc2)C(c2ccccc2)=CN1Cc1ccccc1
inactive: dose: 100.0 mg/kg/injection, schedule: Q04DX002 (ip), vehicle: Klucel (hydroxypropylcellulose) (HPC) 96 % of control | dose: 200.0 mg/kg/injection, schedule: Q04DX002 (ip), vehicle: Klucel (hydroxypropylcellulose) (HPC) 103 % of control | dose: 400.0 mg/kg/injection, schedule: Q04DX002 (ip), vehicle: Klucel (hydroxypropylcellulose) (HPC) 92 % of control

c1cc(CCc2ccncc2)ccn1
inactive: [5] 99 % of control | [6] 99 % of control | [2] 109 % of control and 89 % of control

C[N+](C)(C)CC1C2C=CC(C2)C1CO (stereo unspecified)
inactive: [2] 110 % of control | [3] 107 % of control | [4] 100 % of control

Nc1cc(C(=O)Nc2ccc(C3=NCCCN3)cc2)ccc1C(=O)Nc1ccc(C2=NCCCN2)cc1
inactive: dose: 7.5 mg/kg/injection, schedule: Q01DX Z (oral), vehicle: saline 97 % of control | dose: 15.0 mg/kg/injection, schedule: Q01DX Z (ip), vehicle: saline 93 % of control | dose: 15.0 mg/kg/injection, schedule: Q01DX Z (oral), vehicle: saline 96 % of control | dose: 30.0 mg/kg/injection, schedule: Q01DX Z (oral), vehicle: saline 97 % of control | dose: 60.0 mg/kg/injection, schedule: Q01DX Z (oral), vehicle: saline 103 % of control

c1ccc(N2N=NC3C4CCC(C4)C32)cc1 (stereo unspecified)
inactive: [20] 108 % of control | [21] 98 % of control | [22] 104 % of control

COc1ccc(C(=O)C(C)C(C)=N)c(OCc2ccccc2)c1OC (stereo unspecified)
inactive: dose: 100.0 mg/kg/injection, schedule: Q01DX001 (ip), vehicle: carboxymethylcellulose (CMC) 95 % of control | dose: 200.0 mg/kg/injection, schedule: Q01DX001 (ip), vehicle: carboxymethylcellulose (CMC) 92 % of control | dose: 400.0 mg/kg/injection, schedule: Q01DX001 (ip), vehicle: carboxymethylcellulose (CMC) 92 % of control

CC(C)OC(=S)SSC(=S)OC(C)C
inactive: [7] 105 % of control | [17] 96 % of control | [9] 92 % of control | dose: 100.0 mg/kg/injection, schedule: Q04DX003 (ip), vehicle: other 107 % of control | [18] 100 % of control | [11] 90 % of control | dose: 200.0 mg/kg/injection, schedule: Q04DX003 (ip), vehicle: other 98 % of control | [19] 102 % of control

O=C(O)c1cc(C(Cl)(Cl)Cl)ccc1C(Cl)(Cl)Cl
inactive: dose: 50.0 mg/kg/injection, schedule: Q01DX009 (ip), vehicle: saline sonified 95 % of control | [8] 97 % of control | [23] 101 % of control | [10] 96 % of control | [24] 98 % of control | [12] 103 % of control

Clc1ccc2nc(/C=C/c3ccccc3)ccc2c1
inactive: [25] 95 % of control | [26] 104 % of control | [27] 98 % of control

c1ccc(N/N=C(\c2ccccc2)c2cccs2)cc1
inactive: [20] 97 % of control | [14] 98 % of control | [21] 97 % of control | [15] 104 % of control | [22] 91 % of control | [16] 98 % of control

O=c1[nH]c(Cl)nc2c(Cl)c(C(Cl)(Cl)Cl)nn12
inactive: [20] 95 % of control | [14] 101 % of control | [21] 93 % of control | [15] 94 % of control | [16] 92 % of control

COC(=O)N1C=CC2C=CC1C(C#N)(C#N)C2(C#N)C#N (stereo unspecified)
inactive: dose: 12.5 mg/kg/injection, schedule: Q04DX002 (ip), vehicle: Klucel (hydroxypropylcellulose) (HPC) 98 % of control | dose: 25.0 mg/kg/injection, schedule: Q04DX002 (ip), vehicle: Klucel (hydroxypropylcellulose) (HPC) 98 % of control | dose: 50.0 mg/kg/injection, schedule: Q04DX002 (ip), vehicle: Klucel (hydroxypropylcellulose) (HPC) 110 % of control

O=C(O)Cc1cc([N+](=O)[O-])c(O)c([N+](=O)[O-])c1
inactive: [23] 101 % of control | [10] 95 % of control | [24] 102 % of control | [12] 88 % of control | dose: 400.0 mg/kg/injection, schedule: Q01DX009 (ip), vehicle: saline sonified 102 % of control | [13] 93 % of control

CCN(CC)Cc1ccccc1COC(=O)c1ccc(OC)cc1
inactive: [1] 103 % of control | dose: 200.0 mg/kg/injection, schedule: Q04DX002 (ip), vehicle: saline 103 % of control

O=[N+]([O-])c1ccc(N2CCCCC2)cc1
inactive: [25] 108 % of control | [10] 107 % of control | [26] 90 % of control | [12] 104 % of control | dose: 222.0 mg/kg/injection, schedule: Q01DX Z (ip), vehicle: methylcellulose (MC) 102 % of control | dose: 333.0 mg/kg/injection, schedule: Q01DX Z (ip), vehicle: methylcellulose (MC) 94 % of control | [27] 103 % of control | [13] 107 % of control | dose: 500.0 mg/kg/injection, schedule: Q01DX Z (ip), vehicle: methylcellulose (MC) 100 % of control

COc1ccc(/C=C/C(=O)c2ccccc2)cc1
inactive: [20] 93 % of control and 101 % of control | [14] 93 % of control | [21] 95 % of control and 96 % of control | [15] 96 % of control | [22] 111 % of control and 91 % of control | [16] 104 % of control

OCC1OC(n2cc(Cl)c3cncnc32)C(O)C1O (stereo unspecified)
inactive: dose: 50.0 mg/kg/injection, schedule: Q01DX005 (ip), vehicle: saline 101 % of control
